The text below walks through data of EPA's ToxRefDB 2.

One may read the LOAEL as the lowest dose or exposure tested at which an adverse effect was seen. By NOAEL is commonly meant the highest tested level that showed no adverse finding.

Structures are written as SMILES.

One series concerns rabbit. The note with it: Prenatal developmental toxicity study, dutch, Oral, Gavage/Intubation, dose end: 18 GD.
Series [1] deals with mouse. The note with it: Subchronic oral toxicity in rodents, cd1, Feed, dose end: 6 week, group: systemic.
Series [2] concerns rat. The settings on record: Subchronic oral toxicity in rodents, sprague dawley, Feed, dose end: 13 week, group: systemic.
Series [3] deals with rat. The settings on record: Prenatal developmental toxicity study, sprague dawley, Oral, Gavage/Intubation, dose end: 19 GD.
The subject of series [4] is rat. The settings on record: Prenatal developmental toxicity study, sprague dawley, Oral, Gavage/Intubation, dose end: 19 GD. The source holds these as a separate data set.
In series [5] the test system is rat. The note with it: Subchronic oral toxicity in rodents, sprague dawley, Gavage/Intubation, dose end: 13 week, group: systemic.
Series [6] deals with rat. The settings on record: Prenatal developmental toxicity study; sprague dawley; Oral; Gavage/Intubation; dose end: 20 GD; group: maternal; systemic / in life observation / body weight / body weight gain.
The test system of series [7] is mouse. The note with it: Prenatal developmental toxicity study, cd1, Oral, Gavage/Intubation, dose end: 17 GD.
The next series relates to hamster. The settings on record: Developmental neurotoxicity study; golden syrian; Oral; Gavage/Intubation; dose end: 125 PND; group: cannot be grouped; systemic / in life observation / mortality / mortality.
Series [8] has as its system rat. The settings on record: Carcinogenicity; Osborne-Mendel; Oral; Feed; dose end: 80 week; group: systemic; systemic / in life observation / clinical signs / [other] + systemic / in life observation / clinical signs / alopecia + systemic / in life ….
Series [9] has as its system mouse. The settings on record: Multigenerational reproductive toxicity study, other, Oral, Feed, dose end: 1 generation.
In series [10] the test system is mouse. The settings on record: Carcinogenicity; b6c3f1; Oral; Feed; dose end: 80 week; group: systemic; systemic / in life observation / clinical signs / aggressive behavior + systemic / in life observation / clinical signs / alopecia + ….
Setting [11] is: group: developmental, developmental / developmental malformation / bone / unossified + systemic / in life observation / body weight / fetal weight.
Where [12] appears, read: group: maternal, systemic / in life observation / body weight / body weight gain + systemic / in life observation / mortality / mortality.
Where [13] appears, read: group: maternal, systemic / in life observation / body weight / body weight gain + systemic / in life observation / mortality / mortality + reproductive / ….
Where [14] appears, read: systemic / in life observation / body weight / body weight gain + systemic / pathology microscopic / stomach / [other] + systemic / ….
Where [15] appears, read: systemic / in life observation / clinical signs / piloerection + systemic / organ weight / heart / absolute + systemic / pathology gross / ….
[16] abbreviates: systemic / hematology / leukocyte (wbc) count differential / leukocyte (wbc).
The mark [17] stands for this setting: group: developmental, systemic / in life observation / body weight / fetal weight.
The mark [18] stands for this setting: group: maternal, systemic / in life observation / clinical signs / salivation + systemic / in life observation / body weight / body weight + systemic / in ….
[19] abbreviates: group: maternal, reproductive / reproductive performance / estrous cycle / corpora lutea.
The mark [20] stands for this setting: group: maternal, systemic / in life observation / body weight / body weight + systemic / in life observation / body weight / body weight gain + systemic / in….
The mark [21] stands for this setting: systemic / pathology microscopic / stomach / edema + systemic / pathology microscopic / stomach / hyperkeratosis + systemic / pathology ….
Where [22] appears, read: group: developmental, developmental / developmental malformation / bone / absent + developmental / developmental malformation / bone / ossification sites + ….
Setting [23] is: group: maternal, systemic / in life observation / body weight / body weight gain + systemic / in life observation / mortality / mortality + systemic / organ ….
Setting [24] is: group: maternal, systemic / organ weight / liver / relative to body weight.
Where [25] appears, read: group: parental, systemic / in life observation / mortality / mortality.
Setting [26] is: group: reproductive, reproductive / reproductive performance / mating / mating + reproductive / offspring survival early / litter size / litter size.

`Clc1nc(Cl)nc(Nc2ccccc2Cl)n1` [Anilazine]: the LEL with rabbit (setting [11]) stood at 75 mg/kg/day; with rabbit (setting [12]), 40 mg/kg/day; in the series with mouse [1] (setting [15]) it was 334 mg/kg/day. Moreover, the LOAEL was 75 mg/kg/day in the series on rabbit (setting [11]), 40 mg/kg/day in the series on rabbit (setting [12]), 1380 mg/kg/day in the series with mouse [1] (setting [14]) and 45.9 mg/kg/day with rat [2] (setting [16]). For the same compound, the NEL in the series with rabbit (setting [11]) was 40 mg/kg/day; in the series with rabbit (setting [13]), 15 mg/kg/day; in the series on mouse [1] (setting [15]) it was < 334 mg/kg/day; in the series on rat [2] (systemic / organ weight / liver / relative to body weight + systemic / organ weight / lung / relative to body weight + systemic / organ …) it was 600 mg/kg/day. The NOAEL was 40 mg/kg/day with rabbit (setting [11]), 15 mg/kg/day in the series on rabbit (setting [13]), 339 mg/kg/day with mouse [1] (setting [14]) and < 45.9 mg/kg/day with rat [2] (setting [16]).
On to `O=C(CBr)OCC=CCOC(=O)CBr` [1,4-Bis(bromoacetoxy)-2-butene], for which the LEL in the series on rat [3] (setting [17]) came to 35 mg/kg/day; in the series on rat [3] (group: maternal, systemic / in life observation / clinical signs / salivation + systemic / in life observation / clinical signs / fur (altered appearance) + …), 20 mg/kg/day; with rat [4] (setting [17]), 50 mg/kg/day; with rat [4] (setting [19]) it was 25 mg/kg/day. Also, the lowest observed adverse effect level (LOAEL) with rat [3] (setting [17]) was determined as 35 mg/kg/day; with rat [3] (group: maternal, systemic / in life observation / clinical signs / salivation), 20 mg/kg/day; in the series on rat [4] (setting [17]) it was 50 mg/kg/day; with rat [4] (setting [20]), 50 mg/kg/day; in the series on rat [5] (setting [21]), 4.5 mg/kg/day. Also, the NEL in the series with rat [3] (setting [17]) was 20 mg/kg/day; with rat [3] (setting [18]) it was 5 mg/kg/day; in the series on rat [4] (setting [17]), 25 mg/kg/day; in the series on rat [4] (setting [19]), < 25 mg/kg/day; in the series with rat [5] (systemic / clinical chemistry / calcium / calcium + systemic / clinical chemistry / glucose / glucose + systemic / clinical chemistry / urea…) it was 39.1 mg/kg/day. Also, the no-observed-adverse-effect level (NOAEL) in the series with rat [3] (setting [17]) was 20 mg/kg/day; in the series with rat [3] (setting [18]), 5 mg/kg/day; in the series on rat [4] (setting [17]), 25 mg/kg/day; in the series on rat [4] (setting [20]) it was 25 mg/kg/day; in the series on rat [5] (setting [21]) it was < 4.5 mg/kg/day.
With `ClC1=C(Cl)[C@]2(Cl)[C@@H]3[C@H]4C[C@H]([C@@H]5O[C@H]45)[C@@H]3[C@@]1(Cl)C2(Cl)Cl` [Endrin], the LEL in the series with rat [6] was 0.3 mg/kg/day; in the series with mouse [7] (setting [22]) it was 1 mg/kg/day; in the series on mouse [7] (setting [24]), 0.5 mg/kg/day; with hamster, 1.5 mg/kg/day; in the series on rat [8], 0.125 mg/kg/day; with mouse [9] (setting [25]) it was 0.75 mg/kg/day. The LEL amounted to 0.75 mg/kg/day in the series on mouse [9] (setting [26]) and 0.24 mg/kg/day in the series with mouse [10]. Further, the lowest-observed-adverse-effect level (LOAEL) is > 0.45 mg/kg/day in the series on rat [6]; > 2 mg/kg/day in the series on mouse [7] (setting [22]); > 2 mg/kg/day in the series with mouse [7] (setting [23]); > 1.5 mg/kg/day with hamster; > 0.25 mg/kg/day with rat [8]; > 0.75 mg/kg/day in the series on mouse [9] (setting [25]). The LOAEL in the series with mouse [9] (setting [26]) was > 0.75 mg/kg/day; in the series with mouse [10], > 0.48 mg/kg/day. Moreover, the NEL in the series with rat [6] is 0.15 mg/kg/day; in the series on mouse [7] (setting [22]) it was 0.5 mg/kg/day; in the series with mouse [7] (setting [24]) it was < 0.5 mg/kg/day; with rat [8], < 0.125 mg/kg/day; in the series on mouse [9] (setting [25]), < 0.75 mg/kg/day; in the series on mouse [9] (setting [26]), < 0.75 mg/kg/day. The NEL in the series on mouse [10] is < 0.24 mg/kg/day. For the same compound, the no observed adverse effect level (NOAEL) in the series on rat [6] is ≥ 0.45 mg/kg/day; in the series with mouse [7] (setting [22]) it was ≥ 2 mg/kg/day; in the series with mouse [7] (setting [23]), ≥ 2 mg/kg/day; in the series with hamster, ≥ 1.5 mg/kg/day; in the series on rat [8] it was ≥ 0.25 mg/kg/day; in the series on mouse [9] (setting [25]), ≥ 0.75 mg/kg/day. The no observed adverse effect level (NOAEL) with mouse [9] (setting [26]) was ≥ 0.75 mg/kg/day; in the series on mouse [10] it was ≥ 0.48 mg/kg/day.
